Experimental data as given in US20250206708A1, “AN OXAZIRIDINE PLATFORM FOR TARGETING FUNCTIONAL ALLOSTERIC METHIONINE SITES” (Novartis AG, priority 2022, published 2025).

Key:
CDK1 = CDK1 (Homo sapiens, UniProt P06493); assay: Shotgun proteomics (MS/MS) modification of purified CDK1; assay type: binding; details: shotgun proteomics on purified protein
CDK4 = assay: Western blot of Rb phosphorylation (S780, S807/811) as cellular CDK4 activity; assay type: cell-based, human; details: serum-synchronized MCF-7 cells, dose of 500 μM
Method: Cells were synchronized to G1 via serum starvation. Cells were plated at 50% confluency and allowed to adhere overnight in serum-containing media. The next morning, the cells were gently washed twice with HBSS, and serum-free media was added. Cells were allowed to incubate an additional […], […]. Final cell confluency should remain below 75% for optimal results.
Cells were seeded in full media at 8 e5 cells/well in a 6-well plate. They were then serum-synchronized, as outlined in Example 15, and treated with compound as described previously. Cells were monitored by eye for cell death and harvested once high-dose cells were round but not detached. Cells were transferred to ice and washed twice gently with 1 mL ice-cold PBS. 10 mL of lysis buffer was prepared by dissolved a protease-inhibitor table (Pierce; cat no. A32953) and a phosphatase-inhibitor tablet (Roche; cat no. 4906845001) in 10 mL PBS (1% Triton X-100). Cells were scraped to harvest, transferred to 1.5 mL Eppendorf tubes, and incubated at 4° C. for 30 min on a rotator. Samples were spun at 5000×g for 10 min to clarify lysate. Supernatant was transferred to a new tube and protein concentration quantified via BCA assay (Pierce; cat no. 23225). Samples were normalized to the lowest concentration using chilled lysis buffer. […]

Chain of CDK1 (P06493 whole entry): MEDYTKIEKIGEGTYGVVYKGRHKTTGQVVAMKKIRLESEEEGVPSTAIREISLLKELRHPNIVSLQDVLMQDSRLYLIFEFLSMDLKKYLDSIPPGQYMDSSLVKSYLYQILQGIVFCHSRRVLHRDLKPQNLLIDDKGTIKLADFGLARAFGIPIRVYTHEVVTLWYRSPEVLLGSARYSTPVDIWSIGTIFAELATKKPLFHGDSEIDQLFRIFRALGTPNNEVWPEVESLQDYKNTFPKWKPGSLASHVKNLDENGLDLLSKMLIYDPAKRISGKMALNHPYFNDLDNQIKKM

Question: With O=C(N1CC2COCC2C1)N1OC1c1ccccc1 (centres unmarked) [Compound 148] as the compound, how does the “modifications on CDK1” value (CDK1) read?
Answer: No modifications

Question: What about the “signal from pRb antibodies (cellular CDK4 activity)” value (CDK4) of the same compound?
Answer: marked decrease in signal
